Here are results for two compounds from patent publication US10478455B2, “Therapeutic use of tetrathiomolybdate” (UCL BUSINESS LTD, priority 2010, dated 2019).

Series [1] in a line: Study 4: plasma sulphide after i.v. TTM (monobromobimane-based HPLC assay). It counts as in vivo, rat. The method, then: This study investigated sulphide release from tetrathiomolybdate (TTM). Male Wistar rats were anaesthetized allowing insertion of carotid arterial and jugular venous lines for blood sampling and drug administration, respectively. Plasma sulphide levels (measured using a monobromobimane-based HPLC assay) were determined up to 2 h following bolus i.v. administration of TTM (10 mg/kg) or for 3 h after the onset of two continuous i.v. infusions (10 and 20 mg/kg/h).

In series [2] the test system is Male Wistar rats. The series can be described thus: Study 2: core temperature in anaesthetised rats. The format is in vivo, rat. Particulars: anaesthetised rats, 0.2, 2 and 20 mg/kg every 20 minutes; measured 20 minutes after the last dose, vs saline. The method, then: Animals were anaesthetised and instrumented as above. Under continuous anaesthesia, TTM was administered every 20 minutes at increasing doses (0.2, 2 and 20 mg/kg). Core temperature was measured at the beginning of the experiment (i.e. before TTM administration) and 20 minutes after the last dose of the drug (20 mg/kg).

For series [3], the system named is rat model of haemorrhage/reperfusion injury. The series can be described thus: Study 6: rat model of haemorrhage/reperfusion injury. It counts as in vivo. The method, then:
This study investigated effects of TTM in a rat model of haemorrhage/reperfusion injury. Male Wistar rats were anaesthetized for insertion of carotid arterial and jugular venous lines for blood removal and fluid/drug administration, respectively. After 30 min stabilization, 50% estimated circulating blood volume was removed from the arterial line over 15 min. Animals were monitored for a further 90 min prior to resuscitation, then randomized to receive either TTM or placebo (normal saline). TTM (10 mg/kg) was administered as an i.v. bolus (2 ml/kg). This was immediately followed by administration of shed blood over 15 min. In TTM-treated animals, the shed blood was supplemented with a further 2.5 mg/kg TTM; total dose 12.5 mg/kg. Placebo treated animals received equivalent volumes of fluid and administration of shed blood. Following resuscitation, both groups of animals received 10 ml/kg/h n-saline and were monitored up to 6 h post-resuscitation. […] Thus, TTM administration improves outcome following severe haemorrhage/reperfusion injury. This beneficial effect is potentially mediated by modulation of metabolism.

The subject of series [4] is Male Wistar rats. The series can be described thus: Study 1: oxygen consumption and carbon dioxide production in awake rats in a metabolic cart. The format is in vivo, rat. The procedure: Male Wistar rats (300 g) were anaesthetised and instrumented with a venous line for drug administration. The animals were placed into a metabolic cart and allowed to recover from anaesthesia. After 2 h, TTM was administered i.v. hourly at increasing doses (2, 5, 10 and 20 mg/kg). Oxygen consumption and carbon dioxide production were continually monitored for the duration of the experiment. TTM induced a clear drop in oxygen consumption and carbon dioxide production at 10 and 20 mg/kg (FIG. 1), compared to time-matched control animals (sham) receiving only vehicle (saline).

Another series has as its system endotoxaemic animals. The series can be described thus: Study 3: core temperature during endotoxaemia (lipopolysaccharide, Klebsiella pneumoniae). The format is in vivo, rat. The procedure:
FIG. 3: Protocol for endotoxaemia experiments. ETX is endotoxin, TTM is tetrathiomolybdate. Fluids: a 50:50 mix of colloid and crystalloid plus glucose. TTM was diluted in normal saline and administered as a 4 ml/kg bolus. Animals received a venous line for drug administration under anaesthesia. Endotoxaemia (which typically causes an increase in core temperature) was induced by intravenous administration of lipopolysaccharide (20 mg/kg, Klebsiella pneumoniae). TTM or vehicle was administered 1 h following the onset of endotoxaemia (FIG. 3; protocol).

A further series concerns Soleus muscle fibres. The series can be described thus: Study 5: ex-vivo inhibition of oxygen consumption in permeabilized soleus muscle fibres (Clark electrode). As to conditions: TTM 0.5-2 mM, saponin-permeabilized rat soleus muscle fibres. The procedure:
This study investivated ex-vivo Inhibition of oxygen consumption by TTM. Soleus muscle was removed from the hind limbs of male Wistar rats and preserved on ice in a physiological buffer solution. Muscle fibres were isolated with forceps and permeabilized with saponin. Muscle fibres were placed in a closed chamber containing a physiological solution and substrates for oxidative metabolism. Oxygen concentrations within the chamber were measured using a Clark electrode. The fall in oxygen concentration over time (gradient) reflects oxygen consumption by the tissue. Either vehicle or TTM (0.5-2 mM) was added to the chamber and oxygen consumption assessed. […] This further highlights the ability of TTM to decrease metabolism.

The test system of another series is Wilson's disease. Particulars: cited from earlier work.
The mark [5] stands for this setting: awake rats, TTM i.v. hourly at increasing doses, effect at 10 and 20 mg/kg vs sham (saline).

In series [1] (bolus i.v. 10 mg/kg), `[SH-].[SH-].[S]=[Mo]=[S]` [TTM, Tetrathiomolybdate] registered a plasma sulphide half-life of 17 min. For the same compound, the plasma sulphide levels result in series [1] (bolus i.v. 10 mg/kg, up to 2 h) is “high levels of sulphide in plasma”; in series [1] (continuous i.v. infusion 10 and 20 mg/kg/h, 3 h), “dose-dependent increase in plasma sulphide levels”. Further, the “time to steady state of plasma sulphide” value in series [1] (continuous i.v. infusion 10 and 20 mg/kg/h) turned out to be 2 h. Also, the core temperature entry in the series with Male Wistar rats [2] was “decrease in core temperature”; in series [3] (TTM total dose 12.5 mg/kg, haemorrhage/reperfusion), “Core temperature fell”. Besides, the “6 h survival post-resuscitation” value in series [3] (TTM 10 mg/kg i.v. bolus plus 2.5 mg/kg in shed blood (total 12.5 mg/kg) vs placebo) is on record as “significant improvement in 6 h survival”. Besides, the conscious level result in the series on Male Wistar rats [4] (awake rats during intravenous infusion of TTM) is reported as “conscious level was maintained”. Further, in the series on Male Wistar rats [4] (setting [5]), the carbon dioxide production entry is listed as “clear drop”. Besides, the oxygen consumption result with Male Wistar rats [4] (setting [5]) is listed as “clear drop”. Further, in the series with endotoxaemic animals (TTM 20 mg/kg, 1 h after onset of endotoxaemia), the “core temperature at highest dose” value was “induced significant hypothermia”. For the same compound, the “hyperthermic response to endotoxin (core temperature)” value in the series with endotoxaemic animals (TTM given 1 h after onset of endotoxaemia (LPS 20 mg/kg i.v.)) is reported as “ablated the hyperthermic response to endotoxin”. Moreover, in the series with Soleus muscle fibres, the “oxygen consumption ex vivo” value is on record as “dose-dependent inhibition of oxygen consumption”.

Take ammonium TTM: the “neurological function in patients who present with neurologic disease” value with Wilson's disease is given as “preserves neurological function”.
